Test results taken from ChEMBL document CHEMBL3044805, “A comparative study of the efficiency of several sources of induced resistance to powdery mildew (Blumeria graminis f. sp. tritici) in wheat under field conditions” (2009).

Legend:
[1] = system: Triticum aestivum; assay: (§1) Induction of systemic acquired resistance against Blumeria graminis f. sp. tritici in Triticum aestivum (wheat) plants on Kanzler cultivar assessed as decrease in disease severity of powdery mildew in leaves […] (wheat) exposed to 1.2 mM compound for 3 years by small-plot experiment relative to control; assay type: functional; parameters: scale not given: the % may be the effect or the level left
[2] = system: Triticum aestivum; assay: as §1, with “0.3 M” for “1.2 mM”; assay type: functional; parameters: scale not given: the % may be the effect or the level left

SMILES | Activity [1] | Activity [2]
CSC(=O)c1cccc2nnsc12 [ACIBENZOLAR-S-METHYL] | 14.5% | 
C[N+](C)(C)CC(=O)O [BETAINE] |  | 31.8%
